How the values were obtained:
Experiment in all cases: relative viability (nuclei count vs DMSO), 5 days (fraction); higher = more cells survive
[1] = compound: CC1=C(C(=NN1)C)CC2=C(C3=C(S2)N(C(=O)N(C3=O)C)CC(C)C)C(=O)N4C[C@@H](CO4)O + C[C@]1(O)C[C@@H](c2nc(-c3ccc4ccc(-c5ccccc5)nc4c3)c3c(N)nccn32)C1 [Linsitinib] (partner 1 µM)
Outline: (§1)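 Lung cancer cell lines in 1536-well plates were dosed by pin tool the day after seeding, either with one drug alone or with a fixed anchor-drug dose plus five library-drug doses (not always all listed) in √10 steps. After 5 days, cells were fixed and their nuclei stained in one step (final 0.05% Triton X-100, 1% formaldehyde, 1 ug/ml Hoechst), then counted on 4× images. Relative viability is the nuclei count in treated wells divided by that in vehicle wells. Values are medians of duplicate plates.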

[2] = compound: Cc1ccccc1C(C(=O)NC1CCCCC1)N(C(=O)Cn1ccnc1C)c1cccc(F)c1 [IDH-C35] + CS(=O)(=O)CCNCc1ccc(-c2ccc3ncnc(Nc4ccc(OCc5cccc(F)c5)c(Cl)c4)c3c2)o1 [Lapatinib] (partner 2 µM)
Outline: as §1

[3] = compound: CC1=C(C(=NN1)C)CC2=C(C3=C(S2)N(C(=O)N(C3=O)C)CC(C)C)C(=O)N4C[C@@H](CO4)O + Cc1nc(Nc2ncc(C(=O)Nc3c(C)cccc3Cl)s2)cc(N2CCN(CCO)CC2)n1 [Dasatinib] (partner 0.075 µM)
Outline: as §1

[4] = compound: CC1=C(C(=NN1)C)CC2=C(C3=C(S2)N(C(=O)N(C3=O)C)CC(C)C)C(=O)N4C[C@@H](CO4)O + Nc1nc2[nH]cc(CCc3ccc(C(=O)N[C@@H](CCC(=O)O)C(=O)O)cc3)c2c(=O)[nH]1 [Pemetrexed] (partner 0.2 µM)
Outline: as §1

Row | Cell Line | relative viability ([1]; first compound 0.0025 µM) | relative viability ([1]; first compound 0.007906 µM) | relative viability ([1]; first compound 0.025 µM) | relative viability ([1]; first compound 0.07906 µM) | relative viability ([1]; first compound 0.25 µM) | relative viability ([2]; first compound 0.08 µM) | relative viability ([2]; first compound 0.253 µM) | relative viability ([2]; first compound 0.8 µM) | relative viability ([2]; first compound 2.53 µM) | relative viability ([2]; first compound 8 µM) | relative viability ([3]; first compound 0.0025 µM) | relative viability ([3]; first compound 0.007906 µM) | relative viability ([3]; first compound 0.025 µM) | relative viability ([3]; first compound 0.07906 µM) | relative viability ([3]; first compound 0.25 µM) | relative viability ([4]; first compound 0.0025 µM) | relative viability ([4]; first compound 0.007906 µM) | relative viability ([4]; first compound 0.025 µM) | relative viability ([4]; first compound 0.07906 µM) | relative viability ([4]; first compound 0.25 µM)
1 | NCI-H1299 | 1.03 | 0.875 | 0.926 | 1 | 1.06 | 1.02 | 0.975 | 0.967 | 0.936 | 0.898 | – | – | – | – | – | – | – | – | – | –
2 | NCI-H727 | 0.233 | 0.324 | 0.386 | 0.259 | 0.247 | 0.874 | 0.779 | 0.801 | 0.728 | 0.947 | 0.293 | 0.416 | 0.501 | 0.292 | 0.396 | – | – | – | – | –
3 | LCLC-103H | 1.07 | 1.15 | 1.18 | 0.835 | 1.12 | – | – | – | – | – | 0.669 | 0.493 | 0.489 | 0.357 | 0.513 | 0.437 | 0.474 | 0.444 | 0.459 | 0.505
4 | ABC-1 | 0.676 | 0.793 | 0.905 | 1.27 | 0.8 | 1.3 | 1 | 1.03 | 1.16 | 1.06 | – | 0.346 | – | 0.453 | 0.517 | – | – | – | – | –
5 | NCI-H1650 | – | – | – | – | – | 0.785 | 0.835 | 0.692 | 0.285 | 0.664 | 0.425 | 0.362 | 0.287 | 0.457 | 0.227 | 0.321 | 0.406 | 0.367 | 0.369 | 0.321
6 | ChaGo-K-1 | – | – | – | – | – | – | – | – | – | – | 0.616 | 0.605 | 0.565 | 0.503 | 0.513 | 0.26 | 0.261 | 0.261 | 0.254 | 0.249
7 | NCI-H1648 | – | – | – | – | – | – | – | – | – | – | – | – | – | – | – | 0.69 | 0.783 | 0.61 | 0.502 | 0.673
8 | A549 | 0.591 | 0.624 | 0.574 | 0.72 | 0.649 | 0.956 | 1 | 0.988 | 0.947 | 1.03 | – | – | – | – | – | – | – | – | – | –
9 | NCI-H522 | – | – | – | – | – | – | – | – | – | – | 0.971 | 0.97 | 0.763 | 0.649 | 0.662 | 1.14 | 1.37 | 0.98 | 0.54 | 0.643
10 | NCI-H2170 | – | – | – | – | – | 0.254 | 0.259 | 0.28 | 0.274 | 0.272 | 0.56 | 0.592 | 0.589 | 0.412 | 0.552 | 0.261 | 0.274 | 0.252 | 0.248 | 0.266
11 | NCI-H1623 | – | – | – | – | – | – | – | – | – | – | 0.505 | 0.513 | 0.549 | 0.442 | 0.453 | – | – | – | – | –
12 | SW 900 | – | – | – | – | – | – | – | – | – | – | 0.768 | 0.696 | 0.614 | 0.476 | 0.559 | 0.489 | 0.456 | 0.489 | 0.529 | 0.434
13 | IA-LM | 0.686 | 0.509 | 0.552 | 0.525 | 0.94 | 0.721 | 1.03 | 0.721 | 0.809 | 0.535 | – | – | – | – | – | – | – | – | – | –
14 | EBC-1 | 0.989 | 0.847 | 0.805 | 1.05 | 1.08 | 0.24 | 0.228 | 0.24 | 0.232 | 0.236 | – | – | – | – | – | – | – | – | – | –
